Source: PMC6138237, “Machine intelligence decrypts β-lapachone as an allosteric 5-lipoxygenase inhibitor” (Chemical Science, 2018)
Like-named read-outs stand apart in the source and are kept apart here.

Experiments:
Type in all cases: biochemical
EphB4 = molecular target: T1, EphB4 (Homo sapiens, UniProt P54760); test: ExpresS Diversity Kinase Profile, Cerep (LANCE): EphB4
T1 sequence (P54760 16-987): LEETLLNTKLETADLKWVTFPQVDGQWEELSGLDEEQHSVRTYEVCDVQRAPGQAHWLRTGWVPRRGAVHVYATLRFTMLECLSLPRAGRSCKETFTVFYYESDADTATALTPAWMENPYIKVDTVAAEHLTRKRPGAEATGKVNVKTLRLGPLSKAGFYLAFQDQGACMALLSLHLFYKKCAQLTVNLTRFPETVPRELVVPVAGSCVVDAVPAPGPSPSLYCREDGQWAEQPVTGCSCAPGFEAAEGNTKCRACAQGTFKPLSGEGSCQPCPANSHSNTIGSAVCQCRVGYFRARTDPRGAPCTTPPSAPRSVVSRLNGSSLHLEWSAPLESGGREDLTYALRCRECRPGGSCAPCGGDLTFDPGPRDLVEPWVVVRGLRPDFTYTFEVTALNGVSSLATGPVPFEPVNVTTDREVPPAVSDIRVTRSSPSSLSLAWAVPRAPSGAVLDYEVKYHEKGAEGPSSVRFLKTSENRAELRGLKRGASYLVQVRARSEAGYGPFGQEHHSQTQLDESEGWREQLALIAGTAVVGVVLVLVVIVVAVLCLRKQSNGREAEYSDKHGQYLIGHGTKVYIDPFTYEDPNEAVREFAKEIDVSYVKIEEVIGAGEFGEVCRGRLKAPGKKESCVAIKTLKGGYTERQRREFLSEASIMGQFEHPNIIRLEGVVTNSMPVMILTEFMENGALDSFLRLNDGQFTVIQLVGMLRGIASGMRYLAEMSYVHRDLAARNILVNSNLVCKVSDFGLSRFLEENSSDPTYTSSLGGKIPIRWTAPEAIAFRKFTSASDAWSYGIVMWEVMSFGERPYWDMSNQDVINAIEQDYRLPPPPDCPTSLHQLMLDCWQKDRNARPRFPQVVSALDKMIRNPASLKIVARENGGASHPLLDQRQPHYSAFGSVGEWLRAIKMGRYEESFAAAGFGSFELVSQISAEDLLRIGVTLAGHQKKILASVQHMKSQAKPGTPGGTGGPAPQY

VEGFR2 = VEGFR2 (Homo sapiens, UniProt P35968); test: ExpresS Diversity Kinase Profile, Cerep (LANCE): VEGFR2
Sequence of VEGFR2 (P35968 20-1356): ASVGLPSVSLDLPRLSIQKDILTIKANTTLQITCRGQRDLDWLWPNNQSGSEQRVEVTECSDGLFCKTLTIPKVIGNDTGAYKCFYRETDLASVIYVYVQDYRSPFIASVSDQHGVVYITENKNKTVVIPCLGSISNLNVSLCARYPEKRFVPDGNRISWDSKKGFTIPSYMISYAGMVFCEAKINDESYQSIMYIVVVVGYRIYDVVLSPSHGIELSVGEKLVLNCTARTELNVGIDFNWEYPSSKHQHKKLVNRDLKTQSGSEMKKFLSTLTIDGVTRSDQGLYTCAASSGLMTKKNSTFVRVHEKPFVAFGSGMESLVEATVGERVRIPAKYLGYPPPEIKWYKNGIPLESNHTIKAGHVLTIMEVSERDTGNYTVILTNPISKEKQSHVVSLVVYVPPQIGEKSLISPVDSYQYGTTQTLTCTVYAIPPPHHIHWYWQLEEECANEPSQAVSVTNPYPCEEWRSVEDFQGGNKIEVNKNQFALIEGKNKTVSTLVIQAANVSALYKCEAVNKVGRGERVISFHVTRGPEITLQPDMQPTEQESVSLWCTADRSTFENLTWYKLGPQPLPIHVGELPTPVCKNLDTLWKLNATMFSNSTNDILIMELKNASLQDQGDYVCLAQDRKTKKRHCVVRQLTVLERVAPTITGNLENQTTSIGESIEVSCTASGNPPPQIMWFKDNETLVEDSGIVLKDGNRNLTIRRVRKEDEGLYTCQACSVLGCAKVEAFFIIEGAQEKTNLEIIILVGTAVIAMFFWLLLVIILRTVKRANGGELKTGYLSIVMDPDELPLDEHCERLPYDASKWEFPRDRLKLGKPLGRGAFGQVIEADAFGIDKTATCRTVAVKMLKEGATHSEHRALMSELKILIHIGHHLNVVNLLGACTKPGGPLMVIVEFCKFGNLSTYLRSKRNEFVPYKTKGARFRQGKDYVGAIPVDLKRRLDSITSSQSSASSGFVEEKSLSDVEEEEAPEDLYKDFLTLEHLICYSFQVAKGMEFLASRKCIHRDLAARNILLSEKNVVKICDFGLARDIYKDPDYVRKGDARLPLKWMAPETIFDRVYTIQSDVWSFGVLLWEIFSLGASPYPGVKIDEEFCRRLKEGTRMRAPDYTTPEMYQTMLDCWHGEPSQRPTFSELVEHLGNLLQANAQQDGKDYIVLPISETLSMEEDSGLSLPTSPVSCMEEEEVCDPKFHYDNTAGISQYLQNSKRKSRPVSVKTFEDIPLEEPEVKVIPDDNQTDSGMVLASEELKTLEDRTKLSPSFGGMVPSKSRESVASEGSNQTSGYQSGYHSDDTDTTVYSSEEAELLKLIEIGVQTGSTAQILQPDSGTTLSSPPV

JAK3 = molecular target: T2, JAK3 (Homo sapiens, UniProt P52333); test: ExpresS Diversity Kinase Profile, Cerep (LANCE): JAK3
T2 sequence (P52333 1-1124): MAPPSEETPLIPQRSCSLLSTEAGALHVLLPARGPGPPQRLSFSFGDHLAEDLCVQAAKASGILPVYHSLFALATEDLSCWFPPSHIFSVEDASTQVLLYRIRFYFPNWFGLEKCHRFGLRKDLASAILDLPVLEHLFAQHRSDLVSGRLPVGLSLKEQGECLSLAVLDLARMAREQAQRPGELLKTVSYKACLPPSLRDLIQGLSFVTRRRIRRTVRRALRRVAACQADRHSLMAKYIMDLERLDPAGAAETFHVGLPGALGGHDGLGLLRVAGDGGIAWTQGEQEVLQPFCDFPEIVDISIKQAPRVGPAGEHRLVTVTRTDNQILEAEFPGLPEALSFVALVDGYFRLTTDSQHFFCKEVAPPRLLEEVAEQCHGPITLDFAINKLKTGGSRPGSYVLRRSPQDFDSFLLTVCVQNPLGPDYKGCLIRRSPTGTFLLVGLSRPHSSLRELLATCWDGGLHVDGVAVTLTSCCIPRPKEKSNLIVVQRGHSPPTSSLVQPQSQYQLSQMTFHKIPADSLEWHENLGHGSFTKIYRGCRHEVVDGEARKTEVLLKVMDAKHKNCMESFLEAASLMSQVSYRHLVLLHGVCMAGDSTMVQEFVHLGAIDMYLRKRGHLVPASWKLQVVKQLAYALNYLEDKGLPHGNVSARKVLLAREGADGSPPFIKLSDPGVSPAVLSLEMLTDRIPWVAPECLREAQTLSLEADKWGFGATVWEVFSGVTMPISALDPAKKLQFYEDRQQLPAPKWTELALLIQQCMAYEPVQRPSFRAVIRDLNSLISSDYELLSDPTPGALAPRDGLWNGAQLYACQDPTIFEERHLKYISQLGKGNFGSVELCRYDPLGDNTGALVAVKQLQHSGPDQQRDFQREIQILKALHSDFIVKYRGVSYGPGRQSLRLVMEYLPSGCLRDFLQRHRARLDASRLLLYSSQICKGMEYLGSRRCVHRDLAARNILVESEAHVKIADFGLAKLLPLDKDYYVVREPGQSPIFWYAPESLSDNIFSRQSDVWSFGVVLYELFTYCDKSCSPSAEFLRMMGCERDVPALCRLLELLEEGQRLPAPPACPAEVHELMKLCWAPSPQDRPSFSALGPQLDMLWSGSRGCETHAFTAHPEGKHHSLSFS

CDK1 = CDK1 (Homo sapiens, UniProt P06493); test: ExpresS Diversity Kinase Profile, Cerep (LANCE): CDK1
Sequence of CDK1 (P06493 whole entry): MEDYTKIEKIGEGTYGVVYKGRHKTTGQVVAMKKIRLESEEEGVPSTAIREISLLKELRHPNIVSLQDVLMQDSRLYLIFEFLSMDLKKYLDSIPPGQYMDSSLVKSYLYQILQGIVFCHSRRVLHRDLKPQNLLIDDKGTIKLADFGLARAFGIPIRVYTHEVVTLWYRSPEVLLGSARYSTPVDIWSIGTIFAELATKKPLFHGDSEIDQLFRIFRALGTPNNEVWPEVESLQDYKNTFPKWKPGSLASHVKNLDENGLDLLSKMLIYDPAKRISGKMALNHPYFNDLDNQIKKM
Sequence of CDK1 (P14635 whole entry partner): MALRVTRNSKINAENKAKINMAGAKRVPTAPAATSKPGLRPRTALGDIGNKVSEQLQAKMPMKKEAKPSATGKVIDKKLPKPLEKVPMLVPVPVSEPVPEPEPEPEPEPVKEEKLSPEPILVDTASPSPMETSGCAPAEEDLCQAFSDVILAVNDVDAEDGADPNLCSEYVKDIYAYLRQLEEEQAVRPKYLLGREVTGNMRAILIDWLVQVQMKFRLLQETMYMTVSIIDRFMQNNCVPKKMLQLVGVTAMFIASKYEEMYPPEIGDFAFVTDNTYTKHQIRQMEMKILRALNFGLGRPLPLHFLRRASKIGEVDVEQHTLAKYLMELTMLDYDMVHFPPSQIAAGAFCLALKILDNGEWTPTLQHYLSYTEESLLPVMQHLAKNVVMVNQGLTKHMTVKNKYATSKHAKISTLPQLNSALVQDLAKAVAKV

SGK1 = molecular target: T3, SGK1 (Homo sapiens, UniProt O00141); test: ExpresS Diversity Kinase Profile, Cerep (LANCE): SGK1
T3 sequence (O00141 1-431): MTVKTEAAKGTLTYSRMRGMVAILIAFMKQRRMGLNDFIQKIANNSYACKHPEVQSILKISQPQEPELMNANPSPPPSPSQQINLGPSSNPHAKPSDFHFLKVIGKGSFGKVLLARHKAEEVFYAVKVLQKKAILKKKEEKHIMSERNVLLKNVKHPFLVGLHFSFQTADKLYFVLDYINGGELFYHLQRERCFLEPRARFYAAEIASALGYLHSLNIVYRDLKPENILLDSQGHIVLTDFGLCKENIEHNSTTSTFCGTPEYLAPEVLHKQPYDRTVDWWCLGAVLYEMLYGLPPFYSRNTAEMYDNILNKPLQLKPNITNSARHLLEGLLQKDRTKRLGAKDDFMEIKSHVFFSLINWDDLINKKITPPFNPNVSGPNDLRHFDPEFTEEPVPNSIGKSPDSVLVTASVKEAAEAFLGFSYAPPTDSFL

MAP4K4 = MAP4K4 (Homo sapiens, UniProt O95819); test: ExpresS Diversity Kinase Profile, Cerep (LANCE): MAP4K4
Sequence of MAP4K4 (O95819 whole entry): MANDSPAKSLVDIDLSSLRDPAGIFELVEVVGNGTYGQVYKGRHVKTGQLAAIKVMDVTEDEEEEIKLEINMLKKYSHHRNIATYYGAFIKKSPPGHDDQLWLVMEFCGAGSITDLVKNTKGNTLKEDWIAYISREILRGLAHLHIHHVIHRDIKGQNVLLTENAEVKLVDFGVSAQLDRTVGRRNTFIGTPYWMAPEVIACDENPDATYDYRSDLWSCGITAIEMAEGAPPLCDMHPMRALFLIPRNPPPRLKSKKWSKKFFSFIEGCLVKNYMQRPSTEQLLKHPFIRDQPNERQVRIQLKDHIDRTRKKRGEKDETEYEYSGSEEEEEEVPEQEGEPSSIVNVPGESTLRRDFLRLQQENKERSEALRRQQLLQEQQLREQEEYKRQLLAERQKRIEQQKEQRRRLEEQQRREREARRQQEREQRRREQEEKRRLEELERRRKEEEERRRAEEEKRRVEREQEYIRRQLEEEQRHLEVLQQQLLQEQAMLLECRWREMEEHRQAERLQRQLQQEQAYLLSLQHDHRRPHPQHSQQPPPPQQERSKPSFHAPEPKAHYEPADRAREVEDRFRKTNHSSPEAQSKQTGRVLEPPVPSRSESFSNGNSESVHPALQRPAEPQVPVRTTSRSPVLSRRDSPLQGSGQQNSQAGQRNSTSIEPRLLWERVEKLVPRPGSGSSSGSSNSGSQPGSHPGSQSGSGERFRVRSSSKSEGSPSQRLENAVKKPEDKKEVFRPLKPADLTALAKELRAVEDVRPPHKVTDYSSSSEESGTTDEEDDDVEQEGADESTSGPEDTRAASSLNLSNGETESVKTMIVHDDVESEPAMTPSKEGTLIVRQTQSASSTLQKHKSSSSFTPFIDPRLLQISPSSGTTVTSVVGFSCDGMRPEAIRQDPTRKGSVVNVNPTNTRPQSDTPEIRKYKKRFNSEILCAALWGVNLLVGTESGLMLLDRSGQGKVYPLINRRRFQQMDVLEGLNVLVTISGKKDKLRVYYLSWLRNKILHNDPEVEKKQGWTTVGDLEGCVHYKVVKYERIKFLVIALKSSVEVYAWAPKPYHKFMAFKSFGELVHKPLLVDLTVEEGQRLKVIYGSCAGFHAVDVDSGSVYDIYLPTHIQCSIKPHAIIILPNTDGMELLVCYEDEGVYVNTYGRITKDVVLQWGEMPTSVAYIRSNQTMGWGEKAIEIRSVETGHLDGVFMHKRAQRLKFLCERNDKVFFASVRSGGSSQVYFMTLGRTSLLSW

SIK = SIK (Homo sapiens, UniProt P57059); test: ExpresS Diversity Kinase Profile, Cerep (LANCE): SIK; settings: 150 µM
Sequence of SIK (P57059 whole entry): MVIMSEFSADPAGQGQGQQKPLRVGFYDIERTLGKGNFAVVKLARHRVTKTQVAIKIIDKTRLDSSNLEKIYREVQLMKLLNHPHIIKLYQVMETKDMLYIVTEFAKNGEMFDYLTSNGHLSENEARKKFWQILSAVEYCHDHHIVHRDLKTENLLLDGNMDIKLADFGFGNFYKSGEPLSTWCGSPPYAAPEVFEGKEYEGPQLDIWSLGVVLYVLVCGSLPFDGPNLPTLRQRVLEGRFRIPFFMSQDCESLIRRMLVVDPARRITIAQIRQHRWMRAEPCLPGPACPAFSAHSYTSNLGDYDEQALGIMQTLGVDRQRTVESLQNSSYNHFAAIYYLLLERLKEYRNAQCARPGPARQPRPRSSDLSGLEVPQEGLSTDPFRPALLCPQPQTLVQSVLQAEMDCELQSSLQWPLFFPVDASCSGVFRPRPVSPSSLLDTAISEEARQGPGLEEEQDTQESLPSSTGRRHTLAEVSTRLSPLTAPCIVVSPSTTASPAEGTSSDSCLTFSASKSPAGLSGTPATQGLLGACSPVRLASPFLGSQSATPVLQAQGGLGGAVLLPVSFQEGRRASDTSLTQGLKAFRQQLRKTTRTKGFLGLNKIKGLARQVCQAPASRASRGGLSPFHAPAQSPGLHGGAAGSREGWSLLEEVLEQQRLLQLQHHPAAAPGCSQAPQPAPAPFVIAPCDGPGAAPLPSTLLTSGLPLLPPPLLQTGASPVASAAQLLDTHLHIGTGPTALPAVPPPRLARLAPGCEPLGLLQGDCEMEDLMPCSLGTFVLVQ

[1] = Flag: Interference, read-out: % Inhibition of control values, 1st measurement
[2] = Flag: Interference, read-out: % Inhibition of control values, 2nd measurement
[3] = n = 2, Flag: Interference, read-out: % Inhibition of control values, Mean
[4] = n = 2, read-out: % Inhibition of control values, Mean
[5] = read-out: % Inhibition of control values, 1st measurement
[6] = read-out: % Inhibition of control values, 2nd measurement

CN[C@@H]1C[C@H]2O[C@@](C)([C@@H]1OC)n1c3ccccc3c3c4c(c5c6ccccc6n2c5c31)C(=O)NC4 [Staurosporine, reference compound]
nHill (EphB4; control): 1.1
nHill (VEGFR2; control): 1.2
nHill (JAK3; control): 2.2
nHill (CDK1; control): 1.1
nHill (SGK1; control): > 3
nHill (MAP4K4; control): 2.7

CC1(C)CCC2=C(O1)c1ccccc1C(=O)C2=O [β-Lapachone]
inhibition at 150 µM (EphB4; [1]): 54.6%
inhibition at 150 µM (EphB4; [2]): 55.1%
inhibition at 150 µM (EphB4; [3]): 54.8%
inhibition at 150 µM (VEGFR2; [4]): 82.3%
inhibition at 150 µM (VEGFR2; [5]): 82.7%
inhibition at 150 µM (VEGFR2; [6]): 82%
inhibition at 150 µM (JAK3; [4]): 69%
inhibition at 150 µM (JAK3; [5]): 83.6%
inhibition at 150 µM (JAK3; [6]): 54.5%
inhibition at 150 µM (CDK1; [1]): 66%
inhibition at 150 µM (CDK1; [2]): 68%
inhibition at 150 µM (CDK1; [3]): 67%
inhibition at 150 µM (SIK; [1]): 41.8%
inhibition at 150 µM (SIK; [2]): 40.3%
inhibition at 150 µM (SIK; [3]): 41%
inhibition at 150 µM (SGK1; [4]): 54.5%
inhibition at 150 µM (SGK1; [5]): 54.4%
inhibition at 150 µM (SGK1; [6]): 54.5%
inhibition at 150 µM (MAP4K4; [4]): 48.6%
inhibition at 150 µM (MAP4K4; [5]): 47.7%
inhibition at 150 µM (MAP4K4; [6]): 49.5%
